Data reported in US20040018562A1, “Receptor detection” (priority 2002, published 2004).

Columns and labels:
[1] = test system: membrane protein from CHO-M1; assay: Binding of enzyme donor-GTP gamma-S conjugate to membrane protein (open/close readings); conditions: 1 hr
Description: 20 ul of membrane protein (10 ug from CHO-M1) in a binding buffer (50 mM HEPES, 20 mM NaCl, 10 mM MgCl2, with 1 mM DTT or 0.01% CHAPS) was incubated with 10 ul of enzyme donor-GTP gamma-S conjugate at various concentrations for 60 minutes at ambient temperature. 10 ul of enzyme acceptor (0.18 uM) and 15 ul of the chemiluminescent reagent, Galacton Star with Emerald plus (Applied Biosystems, Foster city, Calif.) added and the microtiter plate read on the Lumicount (Packard, Meridien, Conn.). The readings are tabulated below with ED46 mer used as control. Open and Close refer to free and bound enzyme donor conjugate to enzyme acceptor. Percentage inhibition is calculated by (open-close)/open readings.

[2] = test system: membrane protein from CHO-M1; assay: Modulation of enzyme donor-GTP gamma-S conjugate inhibition by GTP gamma-S; assay type: binding; conditions: 1 hr; for % I: absence of GTP-gamma-S; for GTP-r-S (reading): membrane preincubated with GTP gamma-S
Description: In order to test if the inhibition was capable of being modulated. The experiments were performed by incubating the membrane preparation with GTPgamma-S (10 ul of 10 uM). Higher concentrations of enzyme donor together with another detergent saponin were tried to enhance signal and minimize non-specific binding.
10 ul of membrane protein (10 ug from CHO-M1) in a binding buffer (50 mM HEPES, 20 mM NaCl, 10 mM MgCl2, with 0.01% CHAPS or 0.01% saponin) was incubated with 10 ul of GTP gamma-S for 30 minutes at room temperature 10 ul of the enzyme donor conjugate at various concentrations was added and the mixture incubated for 60 minutes at ambient temperature. 10 ul of enzyme acceptor (0.45 uM) and 15 ul of the chemiluminescent reagent, Galacton Star with Emerald plus (Applied Biosystems, Foster city, Calif.) added and the microtiter plate read on the Lumicount (Packard, Meridien, Conn.). The readings are tabulated below with ED46 mer used as control. Open and close refer to free and bound enzyme donor conjugate to enzyme acceptor. Percentage inhibition is calculated by (open-close)/open readings and is in the absence of GTP-gamma-S.

[3] = Buffer with 0.01% CHAPS, 0.5 nM
[4] = Buffer with 0.01% Saponin, 0.5 nM
[5] = Buffer with 0.01% Saponin, 5 nM
[6] = Buffer with 0.01% Saponin, 10 nM
[7] = Buffer with 0.01% Saponin, 25 nM
[8] = Buffer with 0.01% Saponin, 50 nM

SLAVVLQRRDWENPGVTQLNKLAAHPPFASWRNSEEARTDCPSQQL [45+1 mer, 46 mer enzyme donor fragment]
% I ([1]; Binding buffer wCHAPS, 0.1 nM): 10.0% | close ([1]; Binding buffer wCHAPS, 0.1 nM): 1706 | open ([1]; Binding buffer wCHAPS, 0.1 nM): 1895 | % I ([1]; Binding buffer wCHAPS, 0.5 nM): 3.9% | close ([1]; Binding buffer wCHAPS, 0.5 nM): 1846 | open ([1]; Binding buffer wCHAPS, 0.5 nM): 1921 | % I ([1]; Binding buffer wCHAPS, 5 nM): 1.7% | close ([1]; Binding buffer wCHAPS, 5 nM): 3383 | open ([1]; Binding buffer wCHAPS, 5 nM): 3442 | % I ([1]; Binding buffer wCHAPS, 10 nM): 6.0% | close ([1]; Binding buffer wCHAPS, 10 nM): 5017 | open ([1]; Binding buffer wCHAPS, 10 nM): 5339 | % I ([1]; Binding buffer wDTT, 0.1 nM): 16.8% | close ([1]; Binding buffer wDTT, 0.1 nM): 1357 | open ([1]; Binding buffer wDTT, 0.1 nM): 1632 | % I ([1]; Binding buffer wDTT, 0.5 nM): 15.2% | close ([1]; Binding buffer wDTT, 0.5 nM): 1338 | open ([1]; Binding buffer wDTT, 0.5 nM): 1579 | % I ([1]; Binding buffer wDTT, 5 nM): 6.8% | close ([1]; Binding buffer wDTT, 5 nM): 2372 | open ([1]; Binding buffer wDTT, 5 nM): 2544 | % I ([1]; Binding buffer wDTT, 10 nM): 12.6% | close ([1]; Binding buffer wDTT, 10 nM): 3502 | open ([1]; Binding buffer wDTT, 10 nM): 4006 | % I ([1]; Binding buffer, 0.1 nM): 5.8% | close ([1]; Binding buffer, 0.1 nM): 1773 | open ([1]; Binding buffer, 0.1 nM): 1882 | % I ([1]; Binding buffer, 0.5 nM): −2.3% | close ([1]; Binding buffer, 0.5 nM): 1940 | open ([1]; Binding buffer, 0.5 nM): 1896 | % I ([1]; Binding buffer, 5 nM): −1.1% | close ([1]; Binding buffer, 5 nM): 2952 | open ([1]; Binding buffer, 5 nM): 2921 | % I ([1]; Binding buffer, 10 nM): 6.7% | close ([1]; Binding buffer, 10 nM): 4176 | open ([1]; Binding buffer, 10 nM): 4474 | % M [2, 3]: −1.6% | close [2, 3]: 353 | open [2, 3]: 322 | % I [2, 3]: −9.7% | GTP-r-S (reading) [2, 3]: 348 | % M ([2]; Buffer with 0.01% CHAPS, 5 nM): 10.2% | close ([2]; Buffer with 0.01% CHAPS, 5 nM): 1318 | open ([2]; Buffer with 0.01% CHAPS, 5 nM): 1214 | % I ([2]; Buffer with 0.01% CHAPS, 5 nM): −8.6% | GTP-r-S (reading) ([2]; Buffer with 0.01% CHAPS, 5 nM): 1468 | % M ([2]; Buffer with 0.01% CHAPS, 10 nM): 6.1% | close ([2]; Buffer with 0.01% CHAPS, 10 nM): 3265 | open ([2]; Buffer with 0.01% CHAPS, 10 nM): 2971 | % I ([2]; Buffer with 0.01% CHAPS, 10 nM): −9.9% | GTP-r-S (reading) ([2]; Buffer with 0.01% CHAPS, 10 nM): 3478 | % M ([2]; Buffer with 0.01% CHAPS, 25 nM): −1.4% | close ([2]; Buffer with 0.01% CHAPS, 25 nM): 10782 | open ([2]; Buffer with 0.01% CHAPS, 25 nM): 8526 | % I ([2]; Buffer with 0.01% CHAPS, 25 nM): −26.5% | GTP-r-S (reading) ([2]; Buffer with 0.01% CHAPS, 25 nM): 10634 | % M ([2]; Buffer with 0.01% CHAPS, 50 nM): 4.5% | close ([2]; Buffer with 0.01% CHAPS, 50 nM): 18587 | open ([2]; Buffer with 0.01% CHAPS, 50 nM): 17367 | % I ([2]; Buffer with 0.01% CHAPS, 50 nM): −7.0% | GTP-r-S (reading) ([2]; Buffer with 0.01% CHAPS, 50 nM): 19466 | % M [2, 4]: 19.6% | close [2, 4]: 228 | open [2, 4]: 215 | % I [2, 4]: −6.4% | GTP-r-S (reading) [2, 4]: 284 | % M [2, 5]: 20.2% | close [2, 5]: 827 | open [2, 5]: 763 | % I [2, 5]: −8.3% | GTP-r-S (reading) [2, 5]: 1035 | % M [2, 6]: 11.6% | close [2, 6]: 2220 | open [2, 6]: 2103 | % I [2, 6]: −5.6% | GTP-r-S (reading) [2, 6]: 2510 | % M [2, 7]: 10.5% | close [2, 7]: 6971 | open [2, 7]: 6600 | % I [2, 7]: −5.6% | GTP-r-S (reading) [2, 7]: 7790 | % M [2, 8]: 8.9% | close [2, 8]: 13597 | open [2, 8]: 13133 | % I [2, 8]: −3.5% | GTP-r-S (reading) [2, 8]: 14932
